The values below come from US9005649B2, “Methods for making controlled delivery devices having zero order kinetics” (Board of Regents, the University of Texas System, priority 2009, dated 2015).

For data set [1] the following is noted: continuous release for seven days, glaucoma; cited from earlier work.
Data set [2] is described as follows: Release of crystal violet from impermeable polyimide tube delivery devices into phosphate buffered saline (USP Disintegration Apparatus, UV-Vis). The class given is physicochemical. Conditions: single outlet port device.
Assay in data set [3]: as above
In kind it is physicochemical. As to conditions: for linearity of release: 28 days; for total duration of release, percentage release extrapolated to 100%: PBS pH 7.37, 37° C., 28 days data. Here is the method:
Lengths of polyimide tubes were provided having a length of 20 mm and a diameter of 125 microns. At the centre of each tube, a passageway with a diameter of 30 microns was made using standard chemical procedures.
Seven (7) tubes having the optimal passageways were selected and loaded with a concentrated solution of crystal violet in ethanol by capillary method. The tubes were then allowed to stand for 24 hours at room temperature to evaporate alcohol from the tubes, such that the tube is tightly packed with a solid crystal violet composition.
After taking an initial weight measurement, an average amount of 126 micrograms of crystal violet was estimated inside the tubes. The ends of the tubes were sealed with a bioglue and dried.
Single passageway tubes made according to Example I were placed in microvials containing 0.26 ml of phosphate buffered saline (0.01 M phosphate, pH 7.37). The vials were placed in a USP Disintegration Apparatus having dip rate of 30-32 dips per minute. The apparatus was connected to a waterbath maintained at 37° C. for the entire duration of study. The buffer was changed every 48 hours, sampled, and analyzed for the amount of crystal violet released using a UV-Vis Spectrophotometer for 28 days.
Several drug delivery devices were constructed in accordance with in Example I except that two passageways were made located equidistant from the tube centre. The optimal seven (7) were selected and loaded with crystal violet in accordance with Example I.
Several drug delivery devices were constructed in accordance with Example I except that three passageways were made located equidistant from each end of the tube. The optimal seven (7) were selected and loaded with crystal violet in accordance with Example I.
Seven (7) lengths of polyimide tubes were provided having a length of 20 mm and a diameter of 125 microns. The tubes were then loaded with a concentrated solution of crystal violet in ethanol by capillary method. The tubes were then allowed to stand for 24 hours at room temperature to evaporate alcohol from the tubes, such that the tube is tightly packed with a solid crystal violet composition. One end of the tube was sealed with a bioglue while the other end was left open.
A drug delivery device made in accordance with Example VIII was subjected to release studies as described in Example II. […] The percentage release when extrapolated to 100% corresponds to the total duration of release of approximately 2 years.

Data set [4] in a line: Release of crystal violet from single outlet port devices of 200, 400 and 600 microns inside diameter (incubator, UV-Vis). In kind it is physicochemical. As to conditions: one outlet port devices, 200, 400, 600 microns inside diameter, 3.0 ml PBS pH 7.37, 37° C., 7 days. The protocol: Drug delivery devices were made having one outlet port and one sealed end. […] Three different variation of devices were prepared with different inside diameters, as in 200, 400, and 600 microns. Four devices of each type were subjected to release studies as described in Example I. Single passageway tubes were placed in micro vials containing 3.0 ml of phosphate buffered saline (0.01 M phosphate, pH 7.37). The vials were placed in an incubator maintained at 37° C. for the entire duration of study. The buffer was changed every 24 hours, sampled, and analyzed for the amount of crystal violet released using a UV-Vis Spectrophotometer for seven (7) days.

For data set [5] the following is noted: intravenous, AIDS patients with CMV retinitis; cited from earlier work.

Consider `CC[C@@H]1C(=O)OC[C@@H]1Cc1cncn1C` [pilocarpine], for which the “release rate from ocular insert” value in data set [1] is 20 to 40 µg/h.

Take `CN(C)c1ccc(C(=C2C=CC(=[N+](C)C)C=C2)c2ccc(N(C)C)cc2)cc1` [crystal violet]: the linearity of release result in data set [2] (5 days) is “significant linearity of release”; in data set [3] (double passageway device) it was “significant linear agent release”; in data set [3] (single passageway device), “significant linearity of release”; in data set [3] (triple passageway device), “significant linear agent release”; in data set [4], “significant linearity of release”. In addition, the “total duration of release, percentage release extrapolated to 100%” value is listed as “approximately 2 years” in data set [2] (no surface passageways, one open end, 5 days data); “approximately 22 years” in data set [3] (double passageway device); “approximately 43 years” in data set [3] (single passageway device (30 micron passageway, 20 mm x 125 micron tube)); “approximately 15 years” in data set [3] (triple passageway device). Also, the entries for the “amount released relative to single passageway device” value in data set [3] (double passageway device) and in data set [3] (triple passageway device) were “two-fold” and “three-fold”, respectively.

As for `Nc1nc(O)c2ncn(COC(CO)CO)c2n1` [Ganciclovir], the “patients experiencing bone marrow toxicity resulting in neutropenia (neutrophil count <1000)” value in data set [5] was 30-50%.
